According to patent publication US10238713B2, “Cyclic tetrapeptides and therapeutic applications thereof” (LODZ UNIVERSITY OF TECHNOLOGY, priority 2010, dated 2019):
Non-standard residues stand in square brackets, D forms with d. Residues, ends and D or L forms follow the SMILES beside them. Oic = O=C(O)[C@@H]1C[C@@H]2CCCC[C@@H]2N1; Phe(4-Cl) = N[C@@H](Cc1ccc(Cl)cc1)C(=O)O; Phe(4-Me) = Cc1ccc(C[C@H](N)C(=O)O)cc1; 2Nal = N[C@@H](Cc1ccc2ccccc2c1)C(=O)O; β3hY = N[C@H](CC(=O)O)Cc1ccc(O)cc1; Hyp = O=C(O)[C@@H]1C[C@@H](O)CN1; 3Pal = N[C@@H](Cc1cccnc1)C(=O)O; Tic = O=C(O)[C@@H]1Cc2ccccc2CN1; β3hF = N[C@H](CC(=O)O)Cc1ccccc1; ΔPro = O=C(O)[C@@H]1C=CCN1

How the values were obtained:
[1] = system: human PBMC; assay: Toxicity test: PBMC survival in 24 h culture (MTT); details: ANOVA, FIGS. 8A-8F (4B8M repeated per figure)
Method: (§2) PBMC were isolated by centrifugation on Ficoll-uropoline gradient (density 1.077 g/ml) (Lymphoprep; PAA Laboratories), at 800×g for 20 min at 4° C. The interphase cells, consisting of lymphocytes (20%) and monocytes (80%) were then washed three times with Hanks' medium and re-suspended in the culture medium at density of 2×10^6 cells/ml.
Appropriate dilutions of DMSO in RPMI 1640 medium were used as controls. Cell survival was determined by the MTT colorimetric method (Hansen et al., J. Immunol. Methods, 1989, pp. 203-210). The data are presented as a mean OD value from quadriplicate wells ±standard error (SE). The cultures “Control (−)” contained only cells in the culture medium.
The assay was performed per Hansen et al., J. Immunol. […] Briefly, 25 μl of MTT (5 mg/ml) stock solution was added per well at the end of cell incubation and the plates were incubated for 3 h in a cell culture incubator. Then, 100 μl of the extraction buffer (20% SDS with 50% DMF, pH 4.7) was added. After additional overnight incubation, the optical density was measured at 550 nm (Dynatech 5000).

[2] = system: PHA-induced proliferation of human peripheral blood mononuclear cells (PBMC); assay: Proliferative response of PBMC to PHA (MTT); format: cell-based; details: four-day incubation, FIGS. 9A-9F
Method: as §2
The isolated PBMC were distributed into 96-well flat-bottom plates in 100 μl aliquots (2×10^5 cells/well). PHA was used at concentration of 5 μg/ml. The compounds were tested at concentrations of 1, 10 and 100 μg/ml. DMSO at appropriate dilutions served as control. After a four-day incubation in a cell culture incubator, the proliferative response of cells was determined by the colorimetric MTT method (Hansen et al., J. Immunol. Methods, 1989, pp. 203-210). The data are presented as a mean OD value from quadriplicate wells ±standard error (SE). The cultures “Control (−)” contained no mitogen (PHA). The cultures “Control (PHA)” contained PHA but not cyclic tetrapeptides.
Briefly, 25 μl of MTT (5 mg/ml) stock solution was added per well at the end of cell incubation and the plates were incubated for 3 h in a cell culture incubator. Then, 100 μl of the extraction buffer (20% SDS with 50% DMF, pH 4.7) was added. After additional overnight incubation, the optical density was measured at 550 nm (Dynatech 5000).

[3] = system: mice, carrageenan air pouch; assay: Carrageenan air-pouch test (exudate cell number); format: in vivo, mouse; details: peptides 100 μg i.p. one hour before carrageenan, 24 h; FIGS. 18A-18B
Method: (§1) In this and the air-pouch test, 1.5 mg peptide was dissolved in 300 μl of DMSO, then in 0.9% NaCl to achieve the desired dose (250 μg/0.2 ml or 100 μg/0.2 ml). Carrageenan (Sigma) was dissolved in 0.9% aqueous NaCl (overnight). 50 μl of 2% carrageenan solution was injected intradermally into hind foot pads. The peptides were given in a single 250 μg dose (0.2 ml) per mouse intraperitoneally (i.p.), 30 min before carrageenan administration. Dexamethasone (DEX) (Dexaven, Polfa, Poland), a reference drug, was given i.p. in dose 25 μg per mouse. Control mice were administered i.p. appropriately diluted solvent (DMSO in aqueous NaCl) instead of peptides. The foot pads of “background” (BG) mice were injected with 50 μl of 0.9% aqueous NaCl. Foot pad edema was measured with a spring caliper, 2 h, 3 h and 4 h after administration of carrageenan. The results are presented in FIGS. 17A, 17B and 17C as mean values of the antigen-specific increase of the foot pad thickness measured in 5 mice in each experimental group and expressed in mm ±SE (only results from measurements 4 h following administration of carrageenan are presented in figures). Statistics: FIG. 17A: Control vs: DEX P=0.0001; 4B8M P=0.0001; P25 NS (P=1.0000); P28 NS (P=1.0000); P31 NS (P=0.0528); P35 P=0.0008 (ANOVA of Kruskal-Wallis); FIG. 17B: Statistics: Control vs: P22 NS (P=1.0000); P26 NS (P=1.0000); P27 P=0.0050; P30 P=0.0004; P33-b NS (P=1.0000); SP00-b P=0.0001; P00S-b NS (P=1.0000) (ANOVA of Kruskal-Wallis); FIG. 17C: Statistics: Control vs: P21 P=0.0147; P23-2 P=0.0083; P24 P=0.0001; P29 NS (P=0.9999); P32 P=0.0001; P33 NS (P=0.6806); P34 NS (P=0.1920) (ANOVA).
Air pouches were formed by subdermal injection into the dorsal region (in a halothane anesthesia) of 5 cm^3 of air (needle 23G x 11/4, 5 ml syringe). On day 3 the air pouches were given an additional 2 ml of air and an inflammatory process was elicited by an intra-pouch injection of 1% of carrageenan in 0.5 ml of 0.9% aqueous NaCl. The peptides were given i.p. at a dose of 100 μg one hour before carrageenan injection into the air pouch. The mice from the “background” (BG) group were given 0.9% aqueous NaCl i.p. and 0.9% aqueous NaCl into the air pouches. Control mice were given appropriately diluted DMSO i.p. and carrageenan into the air pouches. 24 h after carrageenan injection, the mice were sacrificed by cervical dislocation, the air pouches were supplemented with 1 ml of 0.9% aqueous NaCl and the exudates from the air pouches were aspirated using a syringe. The exudates were diluted with 0.9% aqueous NaCl and the cells were counted in a Bürker hemocytometer. Data are presented in FIGS. 18A and 18B as the mean values from 10 mice/group (cell number×10^6 per mouse) ±SE. Then the cells were centrifuged and 0.1 ml of the supernatant was saved for TNF-α determination (see Determination of TNF-α activity, above). The cell pellets were used to perform smears on microscopic glasses, which were stained with Giemsa and May-Grünwald reagents for evaluation of mast cell degranulation. Cell analysis was performed by a histologist using a light microscope and 1000× magnification. The content of intact and degranulated mast cells is given in percentage (mean values from 10 mice/group) ±SE. Statistics: FIG. 18A: BG vs Control P=0.0000; Control vs: DEX P=0.0034; 4B8M P=0.0005; P22 NS (P=0.7275); P26 P=0.0032; P27 NS (P=0.0659); P35 NS (P=1.0000) (ANOVA of Kruskal-Wallis); FIG. 18B: Control vs: P21 NS (P=0.322); P23-2 P=0.0020; P24 P=0.0001; P25 P=0.0418; P28 NS (P=0.3502); P29 NS (P=0.0582); P30 P=0.0006; P31 P=0.0078; P32 P=0.0340; P33 NS (P=0.9993); P34 NS (p=0.0566) (ANOVA).

[4] = system: mice, carrageenan-induced foot pad edema; assay: Carrageenan-induced foot-pad edema test; format: in vivo, mouse; details: 4 h after carrageenan; peptides 250 μg i.p., DEX 25 μg i.p., 30 min before; FIGS. 17A-17C
Method: as §1

Structure (SMILES)	PBMC survival, P vs DMSO at appropriate dilution ([1]; 10 μg/ml)	PBMC survival, P vs DMSO at appropriate dilution ([1]; 100 μg/ml)	PHA-induced PBMC proliferation, P vs DMSO at appropriate dilution ([2]; 10 μg/ml)	PHA-induced PBMC proliferation, P vs DMSO at appropriate dilution ([2]; 100 μg/ml)	air pouch exudate cell number, P vs Control [3]	foot pad edema (increase of foot pad thickness), P vs Control [4]
O=C1C[C@H](Cc2ccccc2)NC(=O)[C@@H]2CCCN2C(=O)[C@@H]2CCCN2C(=O)[C@H](Cc2cccnc2)N1 [I-AC] (cyclo([3Pal]PP[β3hF]))	0.8178	0.9882	0.9850	0.9871	0.0006	0.0004
O=C1C[C@H](Cc2ccccc2)NC(=O)[C@@H]2CCCN2C(=O)[C@@H]2C[C@@H](O)CN2C(=O)[C@H](Cc2ccccc2)N1 [I-R] (cyclo(F[Hyp]P[β3hF]))	0.6250	0.0019	0.7122	0.0436	0.322	0.0147
O=C1C[C@H](Cc2ccccc2)NC(=O)[C@@H]2CCCN2C(=O)[C@@H]2CCCN2C(=O)[C@H](Cc2ccc3ccccc3c2)N1 [I-U] (cyclo([2Nal]PP[β3hF]))	0.9972	0.4949	1.0000	0.0002	0.0020	0.0083
O=C1C[C@H](Cc2ccccc2)NC(=O)[C@@H]2Cc3ccccc3CN2C(=O)[C@@H]2CCCN2C(=O)[C@H](Cc2ccccc2)N1 [I-AB] (cyclo(FP[Tic][β3hF]))	0.8876	0.0001	1.0000	0.0001	0.0582	0.9999
O=C1C[C@H](Cc2ccc(O)cc2)NC(=O)[C@@H]2CCCN2C(=O)[C@@H]2CCCN2C(=O)[C@H](Cc2ccccc2)N1 [I-AG] (cyclo(FPP[β3hY]))	0.0001	0.0001	1.0000	1.0000	0.9993	0.6806
Cc1ccc(C[C@@H]2NC(=O)C[C@H](Cc3ccccc3)NC(=O)[C@@H]3CCCN3C(=O)[C@@H]3CCCN3C2=O)cc1 [I-Z] (cyclo(PP[β3hF][Phe(4-Me)]))	0.9997	0.0236	0.9121	0.8195	0.0659	0.0050
O=C1C[C@H](Cc2ccccc2)NC(=O)[C@@H]2CCCN2C(=O)[C@@H]2C[C@@H]3CCCC[C@@H]3N2C(=O)[C@H](Cc2ccccc2)N1 [I-AD] (cyclo(F[Oic]P[β3hF]))	1.0000	0.9531	–	1.0000	0.0078	0.0528
O=C1C[C@H](Cc2ccccc2)NC(=O)[C@@H]2CCCN2C(=O)[C@@H]2C=CCN2C(=O)[C@H](Cc2ccccc2)N1 [I-S] (cyclo(F[ΔPro]P[β3hF]))	0.9753	1.0000	0.0275	0.0001	0.7275	1.0000
O=C1C[C@H](Cc2ccccc2)NC(=O)[C@@H]2CCCN2C(=O)[C@@H]2CCCN2C(=O)[C@H](Cc2ccc(Cl)cc2)N1 [I-V] (cyclo(PP[β3hF][Phe(4-Cl)]))	0.9999	0.1122	1.0000	0.4681	0.0001	0.0001
O=C1N[C@@H](Cc2ccccc2)CC(=O)N2Cc3ccccc3C[C@H]2C(=O)N2CCC[C@H]2C(=O)N2CCC[C@@H]12 [I-AA] (cyclo(PP[β3hF][Tic]))	0.9997	0.9978	–	1.0000	0.3502	1.0000
C[C@@H]1C[C@H]2[C@@H]3CCC4=CC(=O)C=C[C@]4(C)[C@@]3(F)[C@@H](O)C[C@]2(C)[C@@]1(O)C(=O)CO [DEX, dexamethasone, reference compound]	–	–	–	–	0.0034	0.0001
O=C1C[C@H](Cc2ccccc2)NC(=O)[C@@H]2C[C@@H]3CCCC[C@@H]3N2C(=O)[C@@H]2CCCN2C(=O)[C@H](Cc2ccccc2)N1 [I-Y] (cyclo(FP[Oic][β3hF]))	0.9992	0.0001	0.0001	0.0001	0.0032	1.0000
